{
  "source": "paper PMC4913735",
  "about": "“Non‐glycosidic compounds can stimulate both human and mouse iNKT cells” (European Journal of Immunology, 2016)",
  "key": {"[1]": {"tested_on": "OVA‐specific CD8+ T cells", "assay": "OVA‐specific CD8+ T‐cell response after OVA plus lipid i.v. (H‐2Kb/OVA257–264 tetramer)", "type": "in vivo, mice", "method": "In order to assess the downstream effect of treatment with low concentrations of lipid in vivo, mice were injected with the model antigen OVA together with two different doses of ThrCer 6 and α‐GalCer. Seven days later, OVA‐specific CD8^+ T cells were detected in the blood by H‐2 K^b/OVA257–264 tetramer staining of CD8^+ T cells.\n(A and B) Mice were given 400 μg OVA together with i.v. injection of vehicle or 10 or 750 ng of either α‐GalCer or ThrCer 6. OVA‐specific CD8^+ T cells were enumerated in the blood using tetrameric H‐2K^b/OVA257–264 flow cytometry at (A) day 7 and at (B) day 12. Each square or circle represents the data for a single mouse (n = 4–6/group). Data shown as mean ± SEM and are representative of three independent experiments. **p = 0.0012, *p = 0.0114; Student's t‐test.\nMice were bled on day 7 post immunization of lipids and peripheral blood lymphocytes (PBL) stained with tetrameric H‐2 K^b/OVA257–264 peptide complexes, as previously described 27. A representative tetramer staining is shown in Supporting Information Figure 4."}, "iNKT hybridoma DN32.D3": {"tested_on": "iNKT hybridoma DN32.D3", "assay": "Lipid‐pulsed, washed BMDC stimulation of iNKT hybridoma DN32.D3 (IL‐2)", "type": "cell-based, mouse", "conditions": "10 and 1 ng agonist; up to 24 h after wash; compared with α‐GalCer", "method": "The difference between the functional activity of ThrCer 6 and α‐GalCer, particularly noticeable at low concentrations, may be accounted for by differences in their bioavailability. To address this possibility, bone marrow (BM) derived DC were incubated with a range of different iNKT‐cell agonists at different concentrations overnight, then washed and incubated with fresh media for increasing lengths of time. Lipid‐pulsed DC were then used to stimulate the iNKT‐hybridoma DN32.D3 (Fig. 6A). […] The difference between the ThrCer 6 and ThrCer 7 analogs and α‐GalCer started to be evident as early as 3 h after lipid‐pulsed DC were washed (Fig. 6A).\nFigure 6 Enhanced bioavailability of ThrCer 6 as compared to ThrCer and α‐GalCer. (A) Mouse BMDCs were pulsed for 6 h with 100, 10, or 1 ng/mL of indicated iNKT‐cell agonists. […] Diminished bioavailability is expressed as a percentage of the maximum DN32.D3 activation by each iNKT‐cell agonist. […] (B) IL‐2 in the supernatant from coculture of DN32.D3 with CD11c^+ cells isolated after 64 h was determined by ELISA. […] Significance was calculated between α‐GalCer and ThrCer 6. *p < 0.05, **p < 0.01, ***p < 0.001, ****p < 0.0001; Student's t‐test.\nLevels of iNKT‐cell agonists, presented by CD1d on the surface of cells, were assessed by the amount of IL‐2 secreted by iNKT hybridoma DN32.D3 coincubated with the presenting cells for 17–24 h. […]"}},
  "data": [
    {"smiles": "CCCCCCCCCCCCCCCCCCCCCCCCCC(=O)N[C@@H](CO[C@H]1CC[C@H](O)[C@H](O)[C@H]1O)[C@H](O)[C@H](O)CCCCCCCCCCCCCC", "note": "[ThrCer 6]", "values": [
      {"measurement": "Frequency of OVA‐specific CD8+ T cells, 10 ng lipid", "setting": "[1]; 10 ng i.v. with 400 μg OVA, day 7, compared with 10 ng α‐GalCer", "value": "statistically significant higher frequency"},
      {"measurement": "Frequency of OVA‐specific CD8+ T cells, 10 ng lipid, day 12", "setting": "[1]; 10 ng i.v. with OVA, day 12, higher frequency than α‐GalCer", "value": "persisted at day 12"},
      {"measurement": "Activation of DN32.D3 by lipid‐pulsed, washed BMDC", "setting": "iNKT hybridoma DN32.D3", "value": "enhanced ability to activate DN32.D3"}
    ]}
  ]
}
